Experimental data reported in US20120264827A1, “SULFANYLAMIDE DERIVATIVES, USES THEREOF AND COMPOSITIONS COMPRISING THEM” (YISSUM RESEARCH DEVELOPMENT COMPANY OF THE HEBREW …, priority 2009, published 2012).
Where two headings read alike, the source gives them in different places.

Legend:
[1] = system: maximal electroshock seizure (MES); conditions: rats, cited from earlier work; for PI (TD50/ED50) in rat MES test: reference or literature compound
[2] = system: maximal electroshock seizure (MES); conditions: cited from earlier work
[3] = system: subcutaneous metrazol (pentylenetetrazol) seizure; test: Subcutaneous metrazol seizure threshold test (scMet), mice, intraperitoneal; type: in vivo; conditions: ip;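 further: adult male CF no. 1 albino mice weighing 18-25 g, dosed intraperitoneally with compounds suspended in 0.5% methylcellulose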
[4] = system: maximal electroshock seizure (MES); test: Maximal electroshock seizure test (MES), rats, oral; conditions: Rattus norvegicus, po; for responders at 30 mg/kg: read-out: Anti-MES activity (number of animals protected/number of animals tested); for ED50: read-out: MES ED50, rats dosed orally, interval in parentheses = 95% confidence interval;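 on all read-outs here: adult male Sprague-Dawley rats received test compounds by mouth as a suspension in 0.5% methylcellulose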
Procedure: (§1) The tested compounds were suspended in 0.5% methylcellulose and administered (a) intraperitioneally (ip) to adult male CF no. 1 albino mice (18-25 g) in volume of 0.01 mL/g body weight and (b) orally to adult male Sprague-Dawley albino rats (100-150 g) in volume of 0.04 mL per 10 g of body weight.
(§2) The TD50 was determined by varying the dose of the tested compounds until four points were established between the dose level that induced no signs of minimal motor impairment in any of the animals and the dose at which all the animals were considered impaired. […] The PIs were calculated by dividing the TD50 by the ED50.

[5] = system: maximal electroshock seizure (MES); conditions: male, Sprague-Dawley, rat, in vivo, po
Procedure: as §1, §2

[6] = system: subcutaneous metrazol (pentylenetetrazol) seizure; test: animal or person; conditions: Rattus norvegicus, po, read-out: scMet ED50
Procedure: (§3) The evaluation of the anticonvulsant activity in the maximal electroshock seizure test (MES) and subcutaneous metrazol seizure threshold test (scMet) and the determination of neurotoxicity in the rotorod test, positional sense test, and others were performed according to the protocols described in White, H. S., Woodhead J. H., Wilcox K. S., Stables J. P., Kupferberg H. J., Wolf H. H., Discovery and Preclinical Development of Antiepileptic Drugs; 5th ed.; Lippincott Williams &Wilkins: New york, 2002; 36-48.
(§4) The tested compounds were suspended in 0.5% methylcellulose and administered (a) intraperitioneally (ip) to adult male CF no. 1 albino mice (18-25 g) in volume of 0.01 mL/g body weight and (b) orally to adult male Sprague-Dawley albino rats (100-150 g) in volume of 0.04 mL per 10 g of body weight. The pentylenetetrazol solution at convulsing dose was prepared by sufficient dissolution of pentylenetetrazol in 0.9% saline to make 0.85% solution for administration to mice and a 2.82% solution for administration to rats.
as §2

in vivo = conditions: male, Sprague-Dawley, rat, po
Procedure: as §1, §2

[7] = system: subcutaneous metrazol (pentylenetetrazol) seizure; conditions: male, Sprague-Dawley, rat, in vivo, po
Procedure: as §3, §4, §2

[8] = system: maximal electroshock seizure (MES); test: Maximal electroshock seizure test (MES), mice, intraperitoneal; type: in vivo; conditions: ip;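 further: adult male CF no. 1 albino mice of 18–25 g, given compound intraperitoneally as a 0.5% methylcellulose suspension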
rats = test: Neurotoxicity, median neurotoxic dose (TD50), rats, oral; conditions: rats dosed orally
Procedure: as §1, §2

[9] = system: subcutaneous metrazol (pentylenetetrazol) seizure; conditions: reference AED; species not stated; cited from earlier work
[10] = 30 mg/kg, 0.5 h after administration
[11] = 30 mg/kg, 4 h after administration
[12] = 100 mg/kg, 0.5 h after administration
[13] = 100 mg/kg, 4 h after administration
[14] = 300 mg/kg, 0.5 h after administration
[15] = 300 mg/kg, 4 h after administration

Q: For `CC1(C)C(C(=O)Nc2nnc(S(N)(=O)=O)s2)C1(C)C` [5-(2,2,3,3-tetramethylcyclopropanecarboxamide)-1,3,4-thiamidazole-2-sulfonamide], which “PI (TD50/ED50) in rat MES test” value [1] is on record?
A: The value was “above 50”.

Q: With `CCCC(CCC)C(=O)Nc1ccc(S(N)(=O)=O)cc1` [Compound 6, 4-(valproylamido)-benzenesulfonamide] as the compound, how does the “mice-MES test ED50” value ([2]; mice, previous studies) read?
A: The value was 21 mg/kg.

Q: Which “MES test ED50” value ([2]; MES test in mice and rats, previously synthesized by the inventors) does the source give for `CC1(C)C(C(=O)Nc2ccc(S(N)(=O)=O)cc2)C1(C)C` [Compound 7, 4-(2,2,3,3-tetramethylcyclopropanecarboxamido)-benzenesulfon amide] here?
A: Its value is 26 mg/kg.

Q: With `CCCC(C(=O)Nc1ccc(S(N)(=O)=O)cc1)C(C)C` (centres unmarked) [Compound 18, 2-Isopropyl-N-(4-sulfamoyl-phenyl)-pentanamide] as the compound, how does the melting point read?
A: Its melting point is 217 to 219 °C.

Q: And the “scMet (number of animals protected/number of animals tested)” value [3, 10]?
A: The value was 0/1 0/1 0/1.

Q: What about the “scMet (number of animals protected/number of animals tested)” value [3, 11] of the same compound?
A: Its value is 0/1 0/1 0/1.

Q: What about the “scMet (number of animals protected/number of animals tested)” value [3, 12] of the same compound?
A: The value was 0/1 0/1 0/1.

Q: And the “scMet (number of animals protected/number of animals tested)” value [3, 13]?
A: Its value is 0/1 0/1 0/1.

Q: What about the “scMet (number of animals protected/number of animals tested)” value [3, 14] of the same compound?
A: The value was 0/1 0/1 0/1.

Q: And the “scMet (number of animals protected/number of animals tested)” value [3, 15]?
A: Its value is 0/1 0/1 0/1.

Q: And the responders at 30 mg/kg ([4]; 0.5 h)?
A: Its responders at 30 mg/kg is 0%.

Q: And the responders at 30 mg/kg ([4]; 1 h)?
A: Its responders at 30 mg/kg is 100%.

Q: What about the responders at 30 mg/kg ([4]; 2 h) of the same compound?
A: The responders at 30 mg/kg was 75%.

Q: And the responders at 30 mg/kg ([4]; 4 h)?
A: The responders at 30 mg/kg was 50%.

Q: And the responders at 30 mg/kg ([4]; […])?
A: Its responders at 30 mg/kg is 0%.

Q: What about the ED50 [4] of the same compound?
A: The ED50 was 41.5 mg/kg.

Q: And the “PI, protective index (PI = TD50/ED50) in the MES test” value [5]?
A: The value was over 12.0.

Q: What about the ED50 [6] of the same compound?
A: Its ED50 is over 250 mg/kg.

Q: And the TD50 (in vivo)?
A: The TD50 was over 500 mg/kg.

Q: And the “PI, protective index (PI = TD50/ED50) in the scMet test” value [7]?
A: The value was over 2.

Q: What about the “MES (number of animals protected/number of animals tested)” value [8, 10] of the same compound?
A: The value was 0/1.

Q: What about the “MES (number of animals protected/number of animals tested)” value [8, 11] of the same compound?
A: Its value is 0/1.

Q: What about the “MES (number of animals protected/number of animals tested)” value [8, 12] of the same compound?
A: Its value is 0/3.

Q: And the “MES (number of animals protected/number of animals tested)” value [8, 13]?
A: The value was 2/3.

Q: What about the “MES (number of animals protected/number of animals tested)” value [8, 14] of the same compound?
A: The value was 1/1.

Q: What about the “MES (number of animals protected/number of animals tested)” value [8, 15] of the same compound?
A: Its value is 1/1.

Q: With `CCCCC(CC)C(=O)Nc1ccc(S(N)(=O)=O)cc1` (centres unmarked) [Compound 25, 2-Ethyl-N-(4-sulfamoyl-phenyl)-hexanamide] as the compound, how does the melting point read?
A: The melting point was 188 to 190 °C.

Q: And the “scMet (number of animals protected/number of animals tested)” value [3, 10]?
A: Its value is 0/1.

Q: And the “scMet (number of animals protected/number of animals tested)” value [3, 11]?
A: The value was 0/1 0/1 0/1.

Q: And the “scMet (number of animals protected/number of animals tested)” value [3, 12]?
A: Its value is 2/5.

Q: What about the “scMet (number of animals protected/number of animals tested)” value [3, 13] of the same compound?
A: The value was 0/1 0/1 0/1.

Q: And the “scMet (number of animals protected/number of animals tested)” value [3, 14]?
A: The value was 3/5.

Q: What about the “scMet (number of animals protected/number of animals tested)” value [3, 15] of the same compound?
A: The value was 0/1 0/1 0/1.

Q: And the responders at 30 mg/kg ([4]; 0.5 h)?
A: Its responders at 30 mg/kg is 0%.

Q: What about the responders at 30 mg/kg ([4]; 1 h) of the same compound?
A: The responders at 30 mg/kg was 100%.

Q: What about the responders at 30 mg/kg ([4]; 2 h) of the same compound?
A: Its responders at 30 mg/kg is 75%.

Q: What about the responders at 30 mg/kg ([4]; 4 h) of the same compound?
A: Its responders at 30 mg/kg is 100%.

Q: What about the responders at 30 mg/kg ([4]; […]) of the same compound?
A: The responders at 30 mg/kg was 0%.

Q: And the ED50 [4]?
A: Its ED50 is 23.9 mg/kg.

Q: What about the “PI, protective index (PI = TD50/ED50) in the MES test” value [5] of the same compound?
A: The value was over 21.0.

Q: What about the ED50 [6] of the same compound?
A: The ED50 was over 250 mg/kg.

Q: And the TD50 (in vivo)?
A: Its TD50 is over 500 mg/kg.

Q: And the “PI, protective index (PI = TD50/ED50) in the scMet test” value [7]?
A: Its value is over 2.

Q: And the “MES (number of animals protected/number of animals tested)” value [8, 10]?
A: Its value is 0/1.

Q: And the “MES (number of animals protected/number of animals tested)” value [8, 11]?
A: Its value is 0/1.

Q: What about the “MES (number of animals protected/number of animals tested)” value [8, 12] of the same compound?
A: Its value is 3/3.

Q: And the “MES (number of animals protected/number of animals tested)” value [8, 13]?
A: Its value is 3/3.

Q: What about the “MES (number of animals protected/number of animals tested)” value [8, 14] of the same compound?
A: Its value is 1/1.

Q: What about the “MES (number of animals protected/number of animals tested)” value [8, 15] of the same compound?
A: The value was 1/1.

Q: With `CCCC(CCC)C(=O)O` [VPA, 2-propylpentanoic acid] as the compound, how does the “TD50 (neurotoxicity)” value (rats) read?
A: Its value is 784 mg/kg.

Q: Which “anticonvulsant activity in the scMet test” value [9] does the source give for `NS(=O)(=O)Cc1noc2ccccc12` [Zonisamide] here?
A: Its value is “does not display anticonvulsant activity”.

Q: And the “Rat-MES test ED50” value ([1]; reference AED)?
A: The value was 21 mg/kg.

Q: And the “PI (TD50/ED50) in rat MES test” value [1]?
A: The value was 9.1.
